{
  "source": "paper PMC9348534",
  "about": "(Advanced Pharmaceutical Bulletin, 2021)",
  "key": {"[1]": {"assay": "Dissolution and stability test in buffer solution", "format": "physicochemical", "settings": "for Absorbance change (stability) up to 3 hours: aqueous solution, light exposure, ambient temperature, especially pH 1.0; for Appearance of solution after storage for 48 hours: 100 µM, room temperature", "protocol": "Each solution in the respected buffer was then evaluated for its stability at ambient temperature and light exposure. It measured the absorbance change at 428, 416, and 404 nm, subsequently over a time-course using a UV-1800 spectrophotometer (Shimadzu, Japan)."}, "[2]": {"settings": "aqueous; cited from earlier work"}, "K562 cells [3]": {"tested_on": "K562 cells", "assay": "Cell viability assay (trypan blue exclusion or MTT)", "format": "cell-based, human", "description": "(§1) MCF-7/HER2 and MCF-7/EV are HER2 and empty vector-transfected MCF-7 cells obtained from Prof. Yoshio Inouye (Department of Surgery, Toho University School of Medicine, Japan) through Prof. Masashi Kawaichi (Laboratory of Gene Function in Animals, NAIST, Japan). The cells of 4T1, NIH-3T3, and T47D were kindly provided by Prof. Masashi Kawaichi (Laboratory of Gene Function in Animals, NAIST, Japan). K652 cells are the collection from the Laboratory of Tumor Cell Biology, Nara Institute of Science and Technology, Japan. HCC1954 and Caco2 cell lines were given by Dr. dr. Muhammad Hasan Bashari (Faculty of Medicine, Universitas Padjajaran, Indonesia). WiDr cell line was obtained from the Faculty of Medicine, Public Health, and Nursing Universitas Gadjah Mada, Indonesia. […]\n(§2) Cells were grown in 24 or 96-well microplate and then cultured for 24 h. […] After treatment, viable cells were enumerated using the trypan blue exclusion or quantified under MTT assay. […]\n(§3) Molecular docking results were validated by determining the RMSD value of conformation bearing the lowest docking score representing the ∆G (kkal/mol). […] Cytotoxic potencies against several cell lines were statistically analyzed based on the IC50 values through linear regression with a P value of […]."}, "4T1 cells [4]": {"tested_on": "4T1 cells", "assay": "Cell viability assay (trypan blue exclusion or MTT)", "format": "cell-based", "settings": "Mus musculus; 4T1, 24 hours treatment; read-out: IC 50 value", "description": "(§4) MCF-7/HER2 and MCF-7/EV are HER2 and empty vector-transfected MCF-7 cells obtained from Prof. Yoshio Inouye (Department of Surgery, Toho University School of Medicine, Japan) through Prof. Masashi Kawaichi (Laboratory of Gene Function in Animals, NAIST, Japan). The cells of 4T1, NIH-3T3, and T47D were kindly provided by Prof. Masashi Kawaichi (Laboratory of Gene Function in Animals, NAIST, Japan). K652 cells are the collection from the Laboratory of Tumor Cell Biology, Nara Institute of Science and Technology, Japan. HCC1954 and Caco2 cell lines were given by Dr. dr. Muhammad Hasan Bashari (Faculty of Medicine, Universitas Padjajaran, Indonesia). WiDr cell line was obtained from the Faculty of Medicine, Public Health, and Nursing Universitas Gadjah Mada, Indonesia. Briefly, MCF-7/HER2, MCF-7, NIH-3T3, T47D, MCF-7/EV, and 4T1 cells were cultured in Dulbecco’s Modified Eagles Medium (DMEM) high glucose (Gibco, USA), whereas HCC1954, Caco2, WiDr, K562 cells were grown in Rosewell Park Memorial Institute (RPMI) Medium. Both were supplemented with 10% (v/v) fetal bovine serum (Gibco, USA), HEPES (Sigma, USA), sodium bicarbonate (Sigma, USA), 150 IU/mL penicillin and 150 µg/mL streptomycin (Gibco) and 1.25 µg/mL amphotericin B (Gibco, USA). The cells were maintained at 37 °C with 5% CO2 in a humidified atmosphere.\n(§5) Cells were grown in 24 or 96-well microplate and then cultured for 24 h. Subsequently, cells were treated with PGV-1 or CCA-1.1 at concentration series up to 10 µM, except for NIH-3T3 up to 100 µM and incubated for 24 hours. Untreated cells were used as control. After treatment, viable cells were enumerated using the trypan blue exclusion or quantified under MTT assay. The viable cells were represented as % cell viability vs. concentration of the sample, and the IC50 value or the concentration that inhibits 50% of cell growth was calculated.\n(§6) Molecular docking results were validated by determining the RMSD value of conformation bearing the lowest docking score representing the ∆G (kkal/mol). The validity of the molecular docking method was represented as RMSD value < 2. Cytotoxic potencies against several cell lines were statistically analyzed based on the IC50 values through linear regression with a P value of […]."}, "Caco2 cells": {"tested_on": "Caco2 cells", "assay": "Cell viability assay (trypan blue exclusion or MTT)", "format": "cell-based", "settings": "Homo sapiens, Caco-2; Caco2, 24 hours treatment; read-out: IC 50 value", "description": "as §4, §5, §6"}, "HCC1954 cells": {"tested_on": "HCC1954 cells", "assay": "Cell viability assay (trypan blue exclusion or MTT)", "format": "cell-based", "settings": "Homo sapiens; HCC1954, 24 hours treatment; read-out: IC 50 value", "description": "as §4, §5, §6"}, "MCF-7 cells [5]": {"tested_on": "MCF-7 cells", "assay": "Cell viability assay (trypan blue exclusion or MTT)", "format": "cell-based", "settings": "Homo sapiens, MCF7; MCF-7, 24 hours treatment; read-out: IC 50 value", "description": "as §4, §5, §6"}, "MCF-7/EV cells": {"tested_on": "MCF-7/EV cells", "assay": "Cell viability assay (trypan blue exclusion or MTT)", "format": "cell-based", "settings": "Homo sapiens, MCF7, 24 hours treatment, read-out: IC 50 value", "description": "as §4, §5, §6"}, "MCF-7/HER2 cells": {"tested_on": "MCF-7/HER2 cells", "assay": "Cell viability assay (trypan blue exclusion or MTT)", "format": "cell-based", "settings": "Homo sapiens, MCF7; MCF-7/HER2, 24 hours treatment; read-out: IC 50 value", "description": "as §4, §5, §6"}, "NIH-3T3 cells": {"tested_on": "NIH-3T3 cells", "assay": "Cell viability assay (trypan blue exclusion or MTT)", "format": "cell-based", "settings": "Mus musculus, NIH3T3; NIH-3T3 (non-cancerous), concentrations up to 100 µM, 24 hours; read-out: IC 50 value", "description": "as §4, §5, §6"}, "T47D cells": {"tested_on": "T47D cells", "assay": "Cell viability assay (trypan blue exclusion or MTT)", "format": "cell-based", "settings": "Homo sapiens, 24 hours treatment, read-out: IC 50 value", "description": "as §4, §5, §6"}, "WiDr cells": {"tested_on": "WiDr cells", "assay": "Cell viability assay (trypan blue exclusion or MTT)", "format": "cell-based", "settings": "Homo sapiens, 24 hours treatment, read-out: IC 50 value", "description": "as §4, §5, §6"}, "[6]": {"tested_on": "several cancer cell lines", "assay": "Cytotoxic assay on several cancer cell lines (summary statement)", "format": "cell-based", "settings": "several cancer cell lines (Table 3)", "description": "as §1, §2, §3"}, "4T1 cells [7]": {"tested_on": "4T1 cells", "settings": "read-out: IC 50 value; cited from earlier work"}, "MCF-7 cells [8]": {"tested_on": "MCF-7 cells", "design": "method as in PMID 31548601", "settings": "read-out: IC 50 value; cited from earlier work"}, "K562 cells [9]": {"tested_on": "K562 cells", "design": "method as in PMID 31619723", "settings": "read-out: IC 50 value; cited from earlier work"}},
  "note": "Where two headings read alike, the source gives them in different places.",
  "data": [
    {"smiles": "COc1cc(C=CC(=O)CC(=O)C=Cc2ccc(O)c(OC)c2)ccc1O", "note": "[curcumin, 1,7-bis(4-hydroxy-3-methoxyphenyl)-1,6-heptadiene-3,5-dione]", "values": [
      {"measurement": "Absorbance change (stability) up to 3 hours", "setting": "[1]", "value": "tended to decrease the absorbance at 3 hours"},
      {"measurement": "Solubility", "setting": "[2]", "value": 40, "unit": "µM"}
    ]},
    {"smiles": "Cc1cc(C=C2CCC(=Cc3cc(C)c(O)c(C)c3)C2O)cc(C)c1O", "note": "(centres unmarked) [CCA-1.1, 2,5-bis(4-hydroxy-3,5-dimethylbenzylidene)cyclopentanol]", "values": [
      {"measurement": "Appearance of solution after storage for 48 hours", "setting": "[1]", "value": "still looked clear"},
      {"measurement": "Absorbance change (stability) up to 3 hours", "setting": "[1]", "value": "unchanged absorbance up to 3 hours"},
      {"measurement": "Solubility compared at a concentration of 100 µM", "setting": "[1]; distilled water, buffer pH 1.0 and pH 7.4, 100 µM", "value": "more soluble than PGV-1 and curcumin"},
      {"measurement": "Solubility relative to PGV-1", "setting": "[1]; pH 1.0, 7.4, distilled water, observations up to 48 hours", "value": "two times more soluble than PGV-1"},
      {"measurement": "IC50", "setting": "K562 cells [3]; Homo sapiens, K562, 24 hours treatment, read-out: IC 50 value", "value": 0.293, "unit": "µM"},
      {"measurement": "Cytotoxic potency relative to PGV-1", "setting": "K562 cells [3]; K562", "value": "twice stronger than PGV-1"},
      {"measurement": "IC50", "setting": "4T1 cells [4]", "value": 3, "unit": "µM"},
      {"measurement": "IC50", "setting": "Caco2 cells", "value": 5, "unit": "µM"},
      {"measurement": "IC50", "setting": "HCC1954 cells", "value": 6, "unit": "µM"},
      {"measurement": "IC50", "setting": "MCF-7 cells [5]", "value": "< 10", "unit": "µM"},
      {"measurement": "IC50", "setting": "MCF-7/EV cells", "value": 8, "unit": "µM"},
      {"measurement": "IC50", "setting": "MCF-7/HER2 cells", "value": 5, "unit": "µM"},
      {"measurement": "IC50", "setting": "NIH-3T3 cells", "value": "> 50", "unit": "µM"},
      {"measurement": "IC50", "setting": "T47D cells", "value": 7, "unit": "µM"},
      {"measurement": "IC50", "setting": "WiDr cells", "value": 5, "unit": "µM"},
      {"measurement": "IC50", "setting": "[6]", "value": "< 10", "unit": "µM"}
    ]},
    {"smiles": "Cc1cc(C=C2CCC(=Cc3cc(C)c(O)c(C)c3)C2=O)cc(C)c1O", "note": "[PGV-1, 2,5-bis(4-hydroxy-3,5-dimethylbenzylidene)cyclopentanone]", "values": [
      {"measurement": "Appearance of solution at 50 µM", "setting": "[1]; 50 µM (data not shown)", "value": "appeared clear"},
      {"measurement": "Appearance of solution after storage for 48 hours", "setting": "[1]", "value": "appeared with some sediment or crystal"},
      {"measurement": "Absorbance change (stability) up to 3 hours", "setting": "[1]", "value": "tended to decrease the absorbance at 3 hours"},
      {"measurement": "IC50", "setting": "Caco2 cells", "value": 12, "unit": "µM"},
      {"measurement": "IC50", "setting": "HCC1954 cells", "value": 3, "unit": "µM"},
      {"measurement": "IC50", "setting": "MCF-7/EV cells", "value": 8, "unit": "µM"},
      {"measurement": "IC50", "setting": "MCF-7/HER2 cells", "value": 7, "unit": "µM"},
      {"measurement": "IC50", "setting": "NIH-3T3 cells", "value": "> 50", "unit": "µM"},
      {"measurement": "IC50", "setting": "T47D cells", "value": 8, "unit": "µM"},
      {"measurement": "IC50", "setting": "WiDr cells", "value": "> 10", "unit": "µM"},
      {"measurement": "IC50", "setting": "[6]", "value": "< 10", "unit": "µM"},
      {"measurement": "IC50", "setting": "4T1 cells [7]", "value": 4, "unit": "µM"},
      {"measurement": "IC50", "setting": "MCF-7 cells [8]", "value": 6, "unit": "µM"},
      {"measurement": "IC50", "setting": "K562 cells [9]", "value": 0.45, "unit": "µM"}
    ]}
  ]
}
